Assay [1] deals with MDA-MB-231 cells. In words: Scratch assay, migration of MDA-MB-231 cells. The assay is classed as cell-based, human. As for the experimental part:
A. An equal number of MDA-MB-231 TNBC cells were grown to confluence in 6 well plates. The cells were then treated with increasing doses of metformin (0, 1, 5 and 10 mM) and a scratch was made in the cell lawn creating a void. At the times shown the number of cell that migrated into the void were counted. The experiment was repeated twice. B. WT MDA-MB-231 cells and cells stably expressing the C43-4 plasmid were grown as in A. Control cells were left untreated, with other cells treated with the DMSO control, 1 uM DOX or 2.5 uM M2I-1. A void was created in the cell lawn and the number of cells that entered the void were scored as above. This experiment was repeated 4 times. This experiment was also repeated 4 times in an independently generated stable C43-4 cell line with similar results. The error of the mean is shown. C. WT and MDA-MB-231 cells stably expressing the C2-4B peptide plasmid were used for the scratch assay as described above. D. WT and MDA-MB-231 cells stably expressing the C13-3 peptide plasmid were used for the scratch assay as described above. The experiments in C and D were only performed once.
Assays using WT and C43-4 expressing cells have been done 4 times. Assays using C13-3 and C2-4B cells have only been conducted once. Metformin treated cells have been used twice. For scratch assays, a scratch is made down a confluent plate of cells, leaving a void. The number of cells that migrate back into the void over time is determined.

The test system of assay [2] is APC (substrates Cyclin B, Securin, Cdc20, HURP). In words: APC substrate westerns in MDA-MB-231 cells expressing peptides. The format is cell-based, human. The conditions noted are these: for levels of the APC substrate HURP: MDA-MB-231 stably transfected, normalized to tubulin; for levels of the APC substrate CDC20: MDA-MB-231 stably expressing peptides. As for the experimental part: (§1) A. Transient transfection of the C43-4 peptide plasmid into human triple negative MDA-MB-231 breast cancer cells followed by Western blot analysis of lysates against Cyclin B, Securin and Cdc20 showing enhanced protein loss. B. Cells in A were treated with DOX (1 uM) for 48 hrs with cell viability measured using an MTT assay kit. The experiment was done in triplicate with standard error of the means shown.
(§2) A. Stable integration of C43-4 in MDA-MB-231 cells was established by selection of transfected cells on Geneticin for 7 days. Westerns against APC substrates show APC activation. B. Cells in A were treated with DOX (1 uM) for 48 hrs with cell viability measured using an MTT assay kit. Mean and SEM of 3 biological repeats.
(§3) A. TNBC MDA-MB-231 cells stably expressing APC binding peptides activate the APC. Cells were grown to confluence and then used to prepare protein lysates. The lysates were used to measure levels of the APC substrate CDC20, which will be reduced if the APC is activated. Cells stably expressing the pcDNA empty vector were used as a control. B. In a similar experiment, MDA-MB-231 cells stably expressing the APC binding peptides shown, or the empty vector control, were used to measure protein levels of the APC substrate HURP using Westerns. C. Triplicate blots as in B were scanned, normalized to tubulin and plotted. Error of the mean is shown. Significant changes are indicated. D. MDA-MB-231 cells stably expressing the empty pcDNA vector, or the C43-4 and C13-3 APC binding peptides, were treated with 1 μM Doxorubicin for 24 hrs. Cell viability was measured using an MTT viability assay.
The C43-4 peptide sequence was cloned into the human expression vector pcDNA. This construct was transiently, and stably, expressed in human breast cancer cell line MDA-MB-231. […] In 231 cells, which are triple negative, aggressive and somewhat resistant to Doxorubicin, the transiently and stably transfected C43-4 peptide resensitized them to DOX treatment (FIGS. 22B and 23B).
(§4) In FIG. 26B, MDA-MB-231 cells were also stably transfected with the peptides C1-8, C2-4B, C3-1B, and C9-5. Levels of the APC substrate HURP were measured in lysates prepared from these cells. […] The empty vector pcDNA was also stably expressed in 231 cells and used as a control.

The target of assay [3] is T1, Apc5 (Saccharomyces cerevisiae, UniProt Q08683).
T1 construct: expressed in transfected cells; host or cells: yeast Y2H cells
T1 sequence (Q08683 1-685): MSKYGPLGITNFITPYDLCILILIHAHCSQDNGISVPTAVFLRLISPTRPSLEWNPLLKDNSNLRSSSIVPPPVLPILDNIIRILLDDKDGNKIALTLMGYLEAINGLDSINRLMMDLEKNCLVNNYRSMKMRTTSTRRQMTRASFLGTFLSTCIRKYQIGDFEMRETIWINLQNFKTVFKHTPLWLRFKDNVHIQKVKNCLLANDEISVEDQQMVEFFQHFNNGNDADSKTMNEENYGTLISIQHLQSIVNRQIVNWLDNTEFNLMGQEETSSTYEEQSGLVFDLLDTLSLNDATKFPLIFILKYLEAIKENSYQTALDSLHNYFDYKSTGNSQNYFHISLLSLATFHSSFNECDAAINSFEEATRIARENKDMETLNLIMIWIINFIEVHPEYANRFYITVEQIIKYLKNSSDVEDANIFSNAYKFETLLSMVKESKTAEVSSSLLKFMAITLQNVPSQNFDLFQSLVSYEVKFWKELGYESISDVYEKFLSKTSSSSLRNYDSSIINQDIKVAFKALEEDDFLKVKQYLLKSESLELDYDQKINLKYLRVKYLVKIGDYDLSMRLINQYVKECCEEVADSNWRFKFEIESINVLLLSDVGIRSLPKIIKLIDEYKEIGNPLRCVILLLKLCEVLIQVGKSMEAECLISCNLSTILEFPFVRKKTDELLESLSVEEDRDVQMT
In words: Yeast 2-hybrid (Y2H) assay, Apc5 bait. The format is binding. How it is done:
(§5) The reverse genetic screen utilized a yeast 2-hybrid (Y2H) protocol that selected for peptides that bound to the APC subunits Apc5 or Apc10 (see FIG. 8 for APC structure), to assess whether peptide-binding might modify APC function. Peptides that bound APC subunits were then assayed for those that suppressed APC mutant defects.
(§6) To identify peptides that bound to either Apc5 or Apc10 proteins using a yeast 2-hybrid (Y2H) screen, random small peptides were cloned into the TrxA scaffold (library provided by R. Geyer; FIG. 9) and expressed from a galactose-inducible Y2H prey vector in cells harboring either the APC5 or APC10 genes cloned into the Y2H bait vectors (APC5/APC10 bait constructs complement APC mutant defects).
(§7) Over 100 peptides that bound either Apc5 or Apc10 were recovered from millions screened. Six peptides that reproducibly interacted with the Apc5 or Apc10 bait construct in Y2H assays were examined further. Vectors expressing these 6 peptides were transformed into WT or APC mutant cells and assessed for ts growth.

Assay [4] has as its system apc5 temperature sensitive mutant and/or apc10Δ mutant. In words: Viability of APC mutant yeast (spot dilution). The assay is classed as cell-based.
Description: Suitable APC activators also include APC activators that increase the cell viability of an wild-type and/or an APC mutant cell by at least 10%, at least 20%, at least 30%, at least 40%, at least 50%, at least 60%, at least 70% or at least 80% compared to a cell with wild-type APC function. […] Examples of yeast cells with defective APC function include apc5 and apc10 mutants. An example of an apc5 mutant is the apc5 temperature sensitive mutant described herein. An example of an apc10 mutant is the apc10 deletion mutant described herein. Viability of a yeast mutant can be measured for example, by the spot dilution assays described herein or any other method known in the art.
as §5, §7

Assay [5] deals with MDA-MB-231 cells. In words: DOX sensitivity, MTT viability assay, MDA-MB-231 cells expressing peptides. The settings on record: stably transfected, 1 uM Doxorubicin 24 hours. The format is cell-based, human. How it is done:
as §1, §2, §3, §4

Assay [6] addresses T2, Apc10 (Saccharomyces cerevisiae, UniProt P53068).
T2 construct: expressed in transfected cells; host or cells: yeast Y2H cells
T2 sequence (P53068 1-250): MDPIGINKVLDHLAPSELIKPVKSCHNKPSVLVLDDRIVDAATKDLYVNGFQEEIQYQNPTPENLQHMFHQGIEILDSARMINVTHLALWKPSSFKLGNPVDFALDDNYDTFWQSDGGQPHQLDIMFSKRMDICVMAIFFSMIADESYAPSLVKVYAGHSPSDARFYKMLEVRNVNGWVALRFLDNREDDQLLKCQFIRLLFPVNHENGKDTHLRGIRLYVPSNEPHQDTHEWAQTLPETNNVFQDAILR
In words: Yeast 2-hybrid (Y2H) assay, Apc10 bait. The format is binding. As for the experimental part: as §5
A library of random small peptides were cloned into a Thioredoxin (Trx) scaffold (see FIG. 9 for Trx-peptide structure) and expressed from a galactose-inducible Y2H prey vector in cells expressing the Apc10 bait vector (the modified Apc10 is still part of the complete APC complex). Six peptides that reproducibly interacted with the Apc10 bait construct in Y2H assays were identified (FIG. 1A) and were examined further. Cells will only grow in this assay if the peptide interacts with Apc5 or Apc10.
as §6, §7

Assay [7] concerns APC. As to the kind of experiment: Yeast 2-hybrid assay for binding the APC. As for the experimental part: as §5, §6
The subject of assay [8] is apc5^CA temperature sensitive mutant. As to the kind of experiment: Forward genetic screen, rescue of apc5^CA ts growth. The assay is classed as cell-based, yeast. The settings on record: restrictive temperature. The text has this: Using a forward genetic screen to test whether temperature sensitive (ts) APC mutants expressing random small peptides could grow at restrictive temperatures, millions of small peptides were rapidly screened for those that could restore mutant APC phenotypes. Peptides that rescued the apc5^CA ts (temperature sensitive) defect were recovered including peptides Y65 and Y36.
In the forward screens, with galactose-inducible TrxA-based peptide libraries, in cells harboring the apc5^CA ts allele, over 200 peptides (from millions screened) suppressed the ts phenotype. Several recovered plasmids were sequenced.

For assay [9], the target named is T3, Cin5 (Saccharomyces cerevisiae, UniProt P40917).
T3 construct: expressed in transfected cells; host or cells: yeast Y2H cells
T3 sequence (P40917 1-295): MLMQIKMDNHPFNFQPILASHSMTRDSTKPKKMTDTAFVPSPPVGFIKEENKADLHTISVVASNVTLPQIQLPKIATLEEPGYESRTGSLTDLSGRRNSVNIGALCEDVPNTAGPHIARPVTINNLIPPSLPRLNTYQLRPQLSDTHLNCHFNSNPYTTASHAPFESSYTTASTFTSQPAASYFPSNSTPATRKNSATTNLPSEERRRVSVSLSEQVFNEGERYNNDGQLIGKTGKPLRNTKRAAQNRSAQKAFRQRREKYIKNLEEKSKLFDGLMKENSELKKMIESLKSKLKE
As to the kind of experiment: Yeast 2-hybrid with Y65 as bait to identify binding partners. An excerpt:
One peptide in particular, Y65, was of interest because it had homology to Elongin C (Elc1; Y65 is 20 amino acids in length, with a 7 residue stretch sharing 86% identity and 100% similarity with Elc1). Elc1 is a ubiquitin-protein ligase (E3) conserved among eukaryotes that is involved in DNA repair (Harreman et al, 2009; Ribar et al, 2007). To identify what the peptides bound in order to modify APC activity, Y65 was cloned into the Y2H bait vector and used to identify binding partners.

Entries after “also recorded” stand apart in the source; their conditions may differ.

As for `COc1cccc2c1C(=O)c1c(O)c3c(c(O)c1C2=O)C[C@@](O)(C(=O)CO)C[C@@H]3O[C@H]1C[C@H](N)[C@H](O)[C@H](C)O1` [Doxorubicin, reference compound], the “metastatic potential / in vitro migration” value in assay [1] was “blocked”.
For the molecule CECLETETFHPITRHLIVPV [C9-5], the “levels of the APC substrate HURP” value in [2] is “Only C1-8 did not reduce HURP levels”. Moreover, in assay [3], the “binds Apc5 in a yeast 2 hybrid assay” value was “Binds Apc5”. Further, the “viability of an APC mutant” value in assay [4] is on record as “increases the viability of an APC mutant”.
As to FCL (FLC) [C1-8], the “levels of the APC substrate HURP” value in assay [2] is reported as “did not reduce”.
In the case of GALKEVCICIVESVGGEVFS [C13-3], the “levels of the APC substrate CDC20” value in assay [2] is on record as “reduce levels”. Moreover, the “synergy with Doxorubicin (killing effect)” value in assay [5] is recorded as “synergize”. Moreover, in [3], the “binds Apc5 in a yeast 2 hybrid assay” value was “Binds Apc5”. In assay [1], the “metastatic potential / in vitro migration” value was “inhibit the in vitro migration”. Besides, the “viability of an APC mutant” value in assay [4] was “increases the viability of an APC mutant”.
Turning to PSYNTIKYHETHGGRHPRRQRKRPI [C3-1], the “levels of the APC substrate CDC20” value in assay [2] was “reduce levels”. Further, the “binds Apc10 in a yeast 2 hybrid assay” value in assay [6] is “Binds Apc10”. In addition, in assay [4], the “viability of an APC mutant” value was “increases the viability of an APC mutant”.
Turning to PVNGERWAP [C3-1B], the “levels of the APC substrate HURP” value in assay [2] is “Only C1-8 did not reduce HURP levels”. Moreover, in assay [6], the “binds Apc10 in a yeast 2 hybrid assay” value is reported as “Binds Apc10”.
RRCLSIRTENLAWEGKFLRV [C50-1]: in assay [6], the “binds Apc10 in a yeast 2 hybrid assay” value is recorded as “Binds Apc10”. In assay [4], the “viability of an APC mutant” value is “increases the viability of an APC mutant”.
On to SKWTWRMCMSWTVDRFAPVPWP [C24-1], for which the “binds Apc5 in a yeast 2 hybrid assay” value in assay [3] is given as “Binds Apc5”. The “viability of an APC mutant” value in assay [4] is listed as “increases the viability of an APC mutant”.
Regarding SWLNGSGGVVLWLFSNFCCG [Y36], in assay [7], the “bind the APC in a yeast 2HY assay” value is on record as “not bind the APC in a yeast”. Further, the “apc5^CA temperature sensitive (ts) growth / viability” value in assay [8] is on record as “increases the viability; also recorded: rescued; also recorded: Rescues apc5^CA temperature”.
As for VRQKSDKEYERVLGLGLRRL [Y65], the “Interacts with Cin5 in a yeast 2 hybrid assay” value in assay [9] is reported as “One peptide binding partner was isolated, Cin5”. Further, the “bind the APC in a yeast 2HY assay” value in [7] is reported as “not bind the APC in a yeast”. Further, the “apc5^CA temperature sensitive (ts) growth / viability” value in assay [8] is recorded as “increases the viability; also recorded: rescued; also recorded: Rescues apc5^CA temperature”.

These data come from patent publication US11851459B2, “Methods and uses of modulators of anaphase promoting complex (APC) activity for treating cancer” (University of Saskatchewan, priority 2018, dated 2023).
